Measurements: ChEMBL document CHEMBL1201862, “PubChem BioAssay data set” (2004)
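Compound exposure: 48 hours, 5 concentrations, 96-well plates. Here, GI50 denotes the concentration required for 50% inhibition of growth.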 Active and inactive are the calls of the source. Cut-off read from the data, not from the text of the source: active = GI50 up to about 1.1 µM and inactive = higher.

How the values were obtained:
Assay in all cases: NCI anticancer screen, dose series, 48 h
KM-20L2 = tested on: KM-20L2
M19-MEL = tested on: M19-MEL
OVCAR-3 = tested on: OVCAR-3
SR = tested on: SR
CAKI-1 = tested on: CAKI-1
A498 = tested on: A498
HCT-116 = tested on: HCT-116
LXFL 529 = tested on: LXFL 529
DMS-114 = tested on: DMS-114
SNB-78 = tested on: SNB-78
XF498 = tested on: XF498
RXF 631 = tested on: RXF 631
MOLT-4 = tested on: MOLT-4
DLD-1 = tested on: DLD-1
SNB-75 = tested on: SNB-75
M14 = tested on: M14
HL-60 = tested on: HL-60
HOP-92 = tested on: HOP-92
NCI-H522 = tested on: NCI-H522
K562 = tested on: K562
SN12C = tested on: SN12C
OVCAR-5 = tested on: OVCAR-5
A549 = tested on: A549
SF-295 = tested on: SF-295
DMS-273 = tested on: DMS-273
SF-539 = tested on: SF-539
RXF 393 = tested on: RXF 393
NCI-H226 = tested on: NCI-H226
LOX IMVI = tested on: LOX IMVI
SK-OV-3 = tested on: SK-OV-3
IGROV-1 = tested on: IGROV-1
HCC 2998 = tested on: HCC 2998
HOP-62 = tested on: HOP-62
TK-10 = tested on: TK-10
ACHN = tested on: ACHN
NCI-H460 = tested on: NCI-H460
UO-31 = tested on: UO-31
SF-268 = tested on: SF-268
HT-29 = tested on: HT-29
OVCAR-4 = tested on: OVCAR-4
RPMI-8226 = tested on: RPMI-8226
Malme-3M = tested on: Malme-3M
KM12 = tested on: KM12
SK-MEL-28 = tested on: SK-MEL-28
NCI-H23 = tested on: NCI-H23
SNB-19 = tested on: SNB-19
UACC-62 = tested on: UACC-62
EKVX = tested on: EKVX
COLO 205 = tested on: COLO 205
SW-620 = tested on: SW-620
SK-MEL-5 = tested on: SK-MEL-5
UACC-257 = tested on: UACC-257
CCRF-CEM = tested on: CCRF-CEM
U-251 = tested on: U-251
SK-MEL-2 = tested on: SK-MEL-2

CCC(C)C(=O)c1c(O)c(C/C=C(\C)CCC=C(C)C)c(O)c2c(C(O)CC)cc(=O)oc12 (stereo not given)
GI50 (KM-20L2): 1230 nM (inactive)
GI50 (M19-MEL): 2280 nM (inactive)
GI50 (OVCAR-3): 2690 nM (inactive)
GI50 (SR): 1310 nM (inactive)
GI50 (CAKI-1): 2230 nM (inactive)
GI50 (A498): 2050 nM (inactive)
GI50 (HCT-116): 867 nM (active)
GI50 (LXFL 529): 1160 nM (inactive)
GI50 (DMS-114): 498 nM (active)
GI50 (SNB-78): 3890 nM (inactive)
GI50 (XF498): 1820 nM (inactive)
GI50 (RXF 631): 1740 nM (inactive)
GI50 (MOLT-4): 1590 nM (inactive)
GI50 (DLD-1): 1550 nM (inactive)
GI50 (SNB-75): 1490 nM (inactive)
GI50 (M14): 3310 nM (inactive)
GI50 (HL-60): 1460 nM (inactive)
GI50 (HOP-92): 1630 nM (inactive)
GI50 (NCI-H522): 871 nM (active)
GI50 (K562): 679 nM (active)
GI50 (SN12C): 1710 nM (inactive)
GI50 (OVCAR-5): 5280 nM (inactive)
GI50 (A549): 2720 nM (inactive)
GI50 (SF-295): 2810 nM (inactive)
GI50 (DMS-273): 1580 nM (inactive)
GI50 (SF-539): 1670 nM (inactive)
GI50 (RXF 393): 1790 nM (inactive)
GI50 (NCI-H226): 2530 nM (inactive)
GI50 (LOX IMVI): 2740 nM (inactive)
GI50 (SK-OV-3): 4410 nM (inactive)
GI50 (IGROV-1): 2680 nM (inactive)
GI50 (HCC 2998): 358 nM (active)
GI50 (HOP-62): 1950 nM (inactive)
GI50 (TK-10): 3810 nM (inactive)
GI50 (ACHN): 2200 nM (inactive)
GI50 (NCI-H460): 2300 nM (inactive)
GI50 (UO-31): 2240 nM (inactive)
GI50 (SF-268): 1900 nM (inactive)
GI50 (HT-29): 1270 nM (inactive)
GI50 (OVCAR-4): 2110 nM (inactive)
GI50 (RPMI-8226): 1090 nM (active)
GI50 (Malme-3M): 2240 nM (inactive)
GI50 (KM12): 2510 nM (inactive)
GI50 (SK-MEL-28): 1680 nM (inactive)
GI50 (NCI-H23): 1560 nM (inactive)
GI50 (SNB-19): 4230 nM (inactive)
GI50 (UACC-62): 1300 nM (inactive)
GI50 (EKVX): 3600 nM (inactive)
GI50 (COLO 205): 1710 nM (inactive)
GI50 (SW-620): 1980 nM (inactive)
GI50 (SK-MEL-5): 1190 nM (inactive)
GI50 (UACC-257): 2210 nM (inactive)
GI50 (CCRF-CEM): 693 nM (active)
GI50 (U-251): 1510 nM (inactive)
GI50 (SK-MEL-2): 1620 nM (inactive)
